What was measured:
Format in all cases: cell-based, mouse
[1] = test system: SERCA2a activity ([Ca2+]cyto decline); assay: Cytoplasmic Ca2+ transient decay (Fura-2 AM) in SAN cells
Protocol: (§1) SAN cells were placed in Tyrode's solution at 36±0.5° C. and were identified by their characteristic morphology (spindle or spider shape) and spontaneous activity. SAN cells were identified electrophysiologically by spontaneous action potentials with a slow depolarizing phase 4 and the hyperpolarization-activated current (If).^27 Spontaneous action potentials, If and ICa were recorded using the perforated (amphotericin B or β-escin in studies requiring dialysis of Ru360 and/or ATP) patch-clamp technique^28 on single SAN cells at 36±0.5° C. in Tyrode's solution. Intracellular Ca^2+ transients were recorded from single SAN cells using Fura-2 AM excited at 340 nm and 380 nm and emitted and 510 nm. Endogenous NADH from single SAN cells was measured by excitation at 350 nm and recording emitted light at 460 nm.^29 Mitochondrial Ca^2+ was measured at 535 nm from mt-pericam expressing SAN cells exited at 415 nm^20. Mitochondrial Ca^2+ entry was measured in cell membrane permeabilized cardiomyocytes isolated from DN-MCU transgenic, wild type mice and from HEK293 cells using Calcium green-5N^30.
Cytosolic Ca^2+ levels were recorded from Fura-2-loaded cells, excited at wavelengths of 340 and 380 nm, and imaged with a 510 nm long-pass filter. Single isolated SAN cells were loaded with 0.1 μM Fura-2 AM for 20 minutes, and then perfused for 20 minutes to de-esterfy the Fura-2 AM in normal Tyrode's solution. After placement on a recording chamber, the cells were perfused in normal Tyrode's solution at 36° C.±0.5. Spindle-shaped, spontaneously beating cells were chosen for experiments. Action potential recording was performed simultaneously.

[2] = test system: sinoatrial nodal (SAN) pacemaker cells; assay: Spontaneous action potential rate of single SAN cells (perforated patch clamp); conditions: for SAN activity response to ISO: SR Ca2+ release eliminated by ryanodine or SERCA2a inhibited by thapsigargin; for SAN cell beating rate at baseline: no ISO (FIG. 10a)
Protocol: as §1
Isolation of single SAN cells from mice was performed according to previously published methods^22, 27, 31 with minor modifications. Mice were administered an intraperitoneal injection of avertin (20 μl/g) and monitored until unresponsive. The heart was excised and placed into Tyrode's solution (35° C.), consisting of (mM) 140 NaCl, 5.0 HEPES, 5.5 Glucose, 5.4 KCl, 1.8 CaCl2, and 1.0 MgCl2. The pH was adjusted to 7.4 with NaOH. […] The SAN was cut into smaller pieces, which were transferred and rinsed in a solution containing (mM) 140 NaCl, 5.0 HEPES, 5.5 Glucose, 5.4 KCl, 0.2 CaCl2, 0.5 MgCl2, 1.2 KH2PO4, 50 Taurine and 1 mg/ml bovine serum albumin (BSA), with pH adjusted to 7.4 using NaOH. SAN tissue pieces were digested in 5 ml of solution containing collagenase type I, elastase (Worthington), and protease type XIV (Sigma) for 20-30 min. The tissue was transferred to 10 ml of Kraft-Bruhe (KB) medium containing (mM) 100 potassium glutamate, 5.0 HEPES, 20 Glucose, 25 KCl, 10 potassium aspartate, 2.0 MgSO4, 10 KH2PO4, 20 taurine, 5 creatine, 0.5 EGTA, and 1 mg/ml BSA, with pH adjusted to 7.2 using KOH. The tissue was agitated using a glass pipette for 10 min. The cells were stored at 4° C. and studied within 7 hours.
SAN cells were placed in Tyrode's solution at 36±0.5° C. SAN cells were identified by their characteristic morphology (spindle or spider shape) and spontaneous activity in all single cell experiments. SAN cells were also identified electrophysiologically by typical spontaneous action potentials with slow depolarizing phase 4 and the hyperpolarization-activated current (If) in electrophysiological experiments.
Spontaneous action potentials (APs) and If were recorded using the perforated (amphotericin B or β-escin) patch-clamp technique^28 on single SAN cell at 36±0.5° C. in Tyrode's solution (0.5 mM BaCl2 was added to the bath solution when recording If^32). The pipette was filled with (mM) 130 potassium aspartate, 10 NaCl, 10 HEPES, 0.04 CaCl2, amphotericin B 240 μg/ml with pH adjusted to 7.2 with KOH. SAN cells with stable APs lasting at least 5 min were included in the experiments. β-escin 25 μM was substituted for amphotericin B to allow dialysis of Ru360 or ATP. When recording If, membrane potential was held at −35 mV, the voltage steps were applied for 5 s ranging from −125 mV to −45 mV in 10 mV increments or vice versa.^33 ICa was measured using the perforated patch technique at […] as previously described.^22 ICa was confirmed by its sensitivity to Nifedipine 5 μM. Depolarizing voltage pulses (300 ms in duration) to various potentials (−60 mV to 60 mV in 10 mV step) were applied after 50 ms at −40 mV to inactivate INa from a holding potential of −70 mV. […]

[3] = test system: mitochondrial Ca2+ concentration ([Ca2+]mito); assay: Mitochondrial Ca2+ measurement with mt-pericam in cultured SAN cells; conditions: ISO 100 nM
Protocol: as §1
Freshly isolated mouse SAN tissue was cut into small pieces and put into 35 mm tissue culture plates with DMEM. […] Expression of the recombinant ratio-5mt-pericam and DN-MCU in SAN cells was detected by GFP fluorescence. […]

NADH = NADH autofluorescence in SAN cells; conditions: ISO 100 nM
Protocol: as §1
The autofluorescence of endogenous NADH, which derives primarily from mitochondria,^29,35 was measured as described^29. NADH was excited at 350 nm (AT350/SOX, Chroma) and fluorescence was recorded at 460 nm (ET460/50m and T400LP, Chroma). […]

[4] = ATP dialysis, SAN cells from mice expressing phospholamban N27A

Compound: Nc1ncnc2c1ncn2[C@@H]1O[C@H](COP(=O)(O)OP(=O)(O)OP(=O)(O)O)[C@@H](O)[C@H]1O [ATP]
- Rate of [Ca2+]cyto decline after ISO with Ru360 and ATP co-dialysis ([1]; ATP 4 mM co-dialysis with Ru360, relative to ISO-stimulated values without Ru360): restored
- Rate of [Ca2+]cyto decline in N27A SAN cells [1, 4]: did not significantly increase
- SAN cell rate response to ISO, ATP dialysis 8 mM ([2]; ATP dialysis 8 mM): does not enhance
- SAN rate responses to ISO, ATP dialysis alone ([2]; ATP dialysis without Ru360): had no affect
- SAN action potential frequency in N27A SAN cells [2, 4]: did not significantly increase
- Inhibitory effect of Ru360 on SAN cell action potential frequency responses to ISO, with ATP co-dialysis ([2]; co-dialysis with ATP 4 mM and Ru360): reversed
- DN-MCU dependent loss of the ISO rate response, with ATP co-dialysis ([2]; cultured SAN cells expressing DN-MCU, ATP co-dialysis): rescued
- Basal SAN cell rates ([2]; dialysis, no ISO): neither Ru360 nor ATP had any affect

Compound: CC(C)NCC(O)c1ccc(O)c(O)c1 (stereo not shown) [ISO, isoproterenol]
- Rate of decline in [Ca2+]cyto ([1]; ISO vs control bath solution): significantly increased
- Rate of action potential initiation ([2]; ISO, concentration-dependent): increased
- [Ca2+]mito [3]: caused an increase
- NADH fluorescence (NADH): increased

Compound: C/C=C(/C)C(=O)O[C@H]1C(C)=C2[C@H]([C@@H]1OC(=O)CCCCCCC)[C@@](C)(OC(C)=O)C[C@H](OC(=O)CCC)[C@@]1(O)[C@H]2OC(=O)[C@@]1(C)O [thapsigargin]
- SAN activity response to ISO [2]: significantly reduced
- SAN cell beating rate at baseline [2]: reduce

Compound: ryanodine
- SAN activity response to ISO [2]: significantly reduced
- SAN cell beating rate at baseline [2]: reduce

Reference: US20160095837A1, “MODULATION OF MITOCHONDRIAL CALCIUM UNIPORTER ACTIVITY FOR TREATING AND PREVENTING ARRHYTHMIAS” (priority 2014, published 2016)
